For data set [1], the system named is 3T3-L1. The data set can be described thus: Cytotoxicity against mouse 3T3L1 cells at 50 uM after 48 hrs by sulforhodamine B assay. It counts as cell-based. The following applies: 3t3-l1, 48 h. (In general: In SRB staining, fixed cells bind dye roughly in proportion to their protein.)
In data set [2] the test system is 3T3-L1. Nature of the data set: Cytotoxicity against mouse 3T3L1 cells at 50 uM after 24 hrs by sulforhodamine B assay. In kind it is cell-based. The following applies: 3t3-l1, 24 h.
Data set [3] is filed under the species Danio rerio. The data set can be described thus: Toxicity in zebra fish larvae at 5 uM after 48 hrs. It counts as organism-based. The settings on record: zebrafish, in vivo.
The species entered for data set [4] is Danio rerio. The data set can be described thus: Lipid lowering activity in zebrafish embryos at 5 uM by Nile red fat metabolism assay. In kind it is functional, organism-based.

SMILES strings stand for the structures. The source made the active and inactive calls. No cut-off for these calls is given here.

On to `COC(=O)c1ccccc1Oc1ccc(OC)c(OC)c1`, for which the Activity in data set [1] lay in the range of 51 to 75%; in data set [2], 0 to 25%; in data set [3], 0 to 25%.
As to `O=Cc1c(O)ccc2c(=O)c3ccc(O)c(C=O)c3oc12`, the Activity in data set [1] fell in the range of 51 to 75%; in data set [2], 26 to 50%; in data set [3] it was 0 to 25%.
Regarding `COc1cccc2c(=O)c3cc4c(c(O)c3oc12)OC(C)(C)CC4`, the Activity in data set [1] lay within 51 to 75%; in data set [2], 51 to 75%; in data set [3] it was 0 to 25%.
Turning to `O=c1c2ccccc2oc2cc(O)ccc12`, the Activity in data set [1], in data set [2] and in data set [3] was 0 to 25% in each case.
Consider `O=C(O)Cc1ccc2oc3ccccc3c(=O)c2c1`, for which the Activity in data set [1], in data set [2] and in data set [3] was 0 to 25% in each case.
For the compound `COc1cc(/C=C/C(=O)/C=C/c2ccc(OCc3cn(CCO[C@H]4O[C@@H](COC(C)=O)[C@H](OC(C)=O)[C@@H](OC(C)=O)[C@@H]4NC(C)=O)nn3)c(OC)c2)ccc1OCc1cn(CCO[C@@H]2O[C@H](COC(C)=O)[C@@H](OC(C)=O)[C@H](OC(C)=O)[C@@H]2NC(C)=O)nn1`, the Activity in data set [1], in data set [2] and in data set [3] was 0 to 25% each time.
For `O=c1c2ccccc2oc2c(O)c(O)ccc12` [3,4-DIHYDROXYXANTHONE], the figures for the Activity in data set [1], in data set [2] and in data set [3] were 51 to 75%, 26 to 50% and 0 to 25%, respectively. The result in data set [4] was Active.
Consider `COc1ccccc1C(=O)c1ccc(OC)c(OC)c1O`, for which the Activity lay within 51 to 75% in data set [1], 0 to 25% in data set [2] and 0 to 25% in data set [3].
On to `O=c1c2ccccc2oc2ccccc12` [XANTHONE], for which the Activity in data set [1], in data set [2] and in data set [3] was 0 to 25% in each case.
Turning to `O=C(O)Cc1cccc2oc3ccccc3c(=O)c12`, the Activity in data set [1] fell in the range of 26 to 50%; in data set [2], 0 to 25%; in data set [3], 0 to 25%.
For the compound `O=Cc1cc(O)c(O)c2oc3ccccc3c(=O)c12`, the figures for the Activity in data set [1], in data set [2] and in data set [3] were 51 to 75%, 0 to 25% and 0 to 25%, respectively.
As for `COc1ccc2c(=O)c3cc(C(=O)N[C@H](CO)c4ccccc4)ccc3oc2c1`, the values for the Activity in data set [1], in data set [2] and in data set [3] were 26 to 50%, 51 to 75% and 0 to 25%, respectively.
As for `O=c1c2ccccc2oc2cccc(OCCCCCCOc3cccc4oc5ccccc5c(=O)c34)c12`, the Activity lay in the range of 51 to 75% in data set [1], 0 to 25% in data set [2] and 0 to 25% in data set [3].
For `O=c1c2ccc(O)cc2oc2cc(O)ccc12`, the Activity in data set [1], in data set [2] and in data set [3] was 0 to 25% in each case.
Take `C#CCOc1ccc2c(=O)c3ccc(OCC#C)cc3oc2c1`: the Activity in data set [1], in data set [2] and in data set [3] was 0 to 25% each time.
For the compound `CC(=O)Oc1ccc(C(=O)c2ccc(OC(C)=O)c(OC(C)=O)c2)cc1OC(C)=O`, the Activity in data set [1] fell in the range of 51 to 75%; in data set [2], 26 to 50%; in data set [3], 0 to 25%.
Take `Cc1c(O)cc2oc3ccccc3c(=O)c2c1O`: the Activity in data set [1] lay in the range of 0 to 25%; in data set [2], 26 to 50%; in data set [3], 0 to 25%.
For `CCCOc1ccc(NNC(=O)c2ccncc2)c2c(=O)c3ccccc3sc12`, the values for the Activity in data set [1], in data set [2] and in data set [3] were 51 to 75%, 0 to 25% and 51 to 75%, respectively.
In the case of `COc1cc(C(Br)Br)c2c(=O)c3ccccc3oc2c1OC`, the figures for the Activity in data set [1], in data set [2] and in data set [3] were 51 to 75%, 26 to 50% and 0 to 25%, respectively. Besides, the result in data set [4] was Active.
The like results for `C=CCOc1ccc(/C=C/C(=O)/C=C/c2ccc(OCC=C)c(OC)c2)cc1OC` were, in that order, 0 to 25%, 0 to 25%, 0 to 25% and “Active”.
In the case of `O=c1c2ccccc2oc2c(O)cccc12`, the Activity in data set [1], in data set [2] and in data set [3] was 0 to 25% each time.
With `O=c1c2cc(O)c(O)cc2oc2cc(O)c([C@@H]3O[C@H](CO)[C@@H](O)[C@H](O)[C@H]3O)c(O)c12` [MANGIFERIN], the Activity in data set [1], in data set [2] and in data set [3] was 0 to 25% each time.
Take `O=C(COc1ccc2c(=O)c3ccccc3oc2c1)N[C@@H](c1ccccc1)[C@H](O)c1ccccc1`: the values for the Activity in data set [1], in data set [2] and in data set [3] were 0 to 25%, 76 to 100% and 0 to 25%, respectively.
With `COc1cc([C@H]2Oc3ccc4c(=O)c5ccccc5oc4c3O[C@@H]2CO)ccc1O`, the Activity in data set [1], in data set [2] and in data set [3] was 0 to 25% in each case.
In the case of `O=c1c2ccccc2oc2cccc(OCCCCCBr)c12`, the values for the Activity in data set [1], in data set [2] and in data set [3] were 26 to 50%, 0 to 25% and 0 to 25%, respectively. Further, the outcome in data set [4] was Active.
As to `COc1c(O)cc2oc3cc(O)c(CC=C(C)C)c(O)c3c(=O)c2c1CC=C(C)C` [MANGOSTIN], the Activity in data set [1], in data set [2] and in data set [3] was 76 to 100% in each case.
Regarding `CC(C)[C@@H](CO)NC(=O)COc1ccc2c(=O)c3ccccc3oc2c1`, the Activity in data set [1], in data set [2] and in data set [3] was 0 to 25% throughout.
On to `CC(C)=CCOc1ccc2oc3ccccc3c(=O)c2c1OCC=C(C)C`, for which the Activity in data set [1] lay in the range of 51 to 75%; in data set [2], 26 to 50%; in data set [3], 0 to 25%.
Regarding `COc1c(O)ccc2c(=O)c3ccccc3oc12`, the Activity in data set [1], in data set [2] and in data set [3] was 0 to 25% in each case.
Consider `O=c1c2ccc(O[C@H]3O[C@H](CO)[C@@H](O)[C@@H](O)[C@@H]3O)cc2oc2cc(O[C@@H]3O[C@@H](CO)[C@H](O)C(O)[C@H]3O)ccc12` (some centres not stated), for which the Activity fell in the range of 26 to 50% in data set [1], 0 to 25% in data set [2] and 0 to 25% in data set [3].
In the case of `CCN(CC)c1ccc2c(=O)c3cc4c(c(OC)c3oc2c1)CCC(C)(C)O4`, the Activity in data set [1] lay within 51 to 75%; in data set [2], 51 to 75%; in data set [3] it was 76 to 100%. Further, the outcome in data set [4] was Active.
Take `COc1cc(C=O)c2c(=O)c3ccccc3oc2c1O`: the results for the Activity in data set [1], in data set [2] and in data set [3] were 51 to 75%, 0 to 25% and 0 to 25%, respectively. Moreover, in data set [4], the outcome was Active.
As for `COc1cc2oc3c(OC)c4c(cc3c(=O)c2cc1OC)OC(C)(C)CC4`, the Activity in data set [1], in data set [2] and in data set [3] was 0 to 25% each time.
Take `O=C(O)Cc1ccc2c(=O)c3ccccc3oc2c1`: the Activity in data set [1], in data set [2] and in data set [3] was 0 to 25% throughout. Further, in data set [4], the outcome was Active.
As to `COc1ccc(Oc2ccccc2C(=O)O)cc1OC`, the Activity in data set [1], in data set [2] and in data set [3] was 0 to 25% throughout.
As to `COc1c2c(cc3c(=O)c4ccc(O)cc4oc13)CCC(C)(C)O2`, the Activity in data set [1], in data set [2] and in data set [3] was 0 to 25% each time.
As for `CC(C)[C@H](CO)NC(=O)COc1ccc2c(=O)c3ccccc3oc2c1`, the Activity in data set [1], in data set [2] and in data set [3] was 0 to 25% each time.
On to `COc1cccc2c(=O)c3ccccc3oc12`, for which the results for the Activity in data set [1], in data set [2] and in data set [3] were 0 to 25%, 26 to 50% and 0 to 25%, respectively. Moreover, the result in data set [4] was Active.
On to `O=C(COc1ccc2c(=O)c3ccccc3oc2c1)N[C@H](c1ccccc1)[C@@H](O)c1ccccc1`, for which the Activity in data set [1] was 0 to 25%; in data set [2], 76 to 100%; in data set [3], 0 to 25%. The outcome in data set [4] was Active.
Turning to `COc1cc2c(c3oc4ccccc4c(=O)c13)OC(C)(C)C=C2`, the Activity in data set [1] was in the range of 51 to 75%; in data set [2] it was 51 to 75%; in data set [3], 76 to 100%. In data set [4], the outcome was Active.
Turning to `COc1cc(CO)c2c(=O)c3ccccc3oc2c1OC`, the Activity in data set [1] was in the range of 26 to 50%; in data set [2], 0 to 25%; in data set [3] it was 0 to 25%. Further, in data set [4], the result was Active.
With `COc1ccc2oc3ccccc3c(=O)c2c1`, the Activity in data set [1] lay within 0 to 25%; in data set [2] it was 51 to 75%; in data set [3], 0 to 25%. For the same compound, the outcome in data set [4] was Active.
In the case of `CCCOc1ccc(OC)c2c(=O)c3ccccc3sc12`, the Activity in data set [1] was 51 to 75%; in data set [2], 0 to 25%; in data set [3], 0 to 25%. In addition, the result in data set [4] was Active.
Take `COc1cc(/C=C/C(=O)/C=C/c2ccc(O)c(OC)c2)ccc1O`: the Activity in data set [1], in data set [2] and in data set [3] was 0 to 25% each time. In addition, the outcome in data set [4] was Active.
Consider `COc1c2c(cc3c(=O)c4ccccc4oc13)OC(C)(C)C=C2`, for which the Activity was 51 to 75% in data set [1], 26 to 50% in data set [2] and 0 to 25% in data set [3]. For the same compound, in data set [4], the outcome was Active.
Regarding `COc1cc(C=O)c2c(=O)c3ccccc3oc2c1OC`, the results for the Activity in data set [1], in data set [2] and in data set [3] were 51 to 75%, 0 to 25% and 0 to 25%, respectively. Moreover, the outcome in data set [4] was Active.
In the case of `C=Cc1cc2c(=O)c3ccccc3oc2c(OC)c1O`, the values for the Activity in data set [1], in data set [2] and in data set [3] were 51 to 75%, 0 to 25% and 0 to 25%, respectively. The outcome in data set [4] was Active.
For `CCCOc1ccc(N2CCCCC2)c2c(=O)c3ccccc3sc12`, the results for the Activity in data set [1], in data set [2] and in data set [3] were 51 to 75%, 26 to 50% and 76 to 100%, respectively.
Take `CCCOc1ccc(NCCN(CC)CC)c2c(=O)c3ccccc3sc12`: the Activity in data set [1] is 51 to 100%; in data set [2] it was 0 to 100%; in data set [3], 76 to 100%.
For the compound `CCCOc1ccc(NCCN(CC)CC)c2c(=O)c3ccccc3sc12.Cl`, the Activity in data set [1], in data set [2] and in data set [3] was 76 to 100% in each case.
